Results as given in patent US12692269B2, “Therapeutic compounds” (Genentech, Inc., priority 2019, dated 2026).

Assays:
Assay type in all cases: binding
[1] = molecular target: TEAD3 TAZ (amino acids 13-57) (Homo sapiens, UniProt Q99594); experiment: TEAD3-TAZ HTRF (TR-FRET) protein-protein interaction assay; conditions: for TEAD3 TAZ HTRF combined: Max % Inhibition: TEAD3, TAZ peptide; for EC50: TEAD3-TAZ HTRF, TR-FRET 665 nm/615 nm, read-out: TEAD3 TAZ HTRF combined: EC50
Outline: (§1)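 Read-out is the TR-FRET 665 nm/615 nm ratio, which falls when compound disrupts TEAD binding to YAP (aa 50-100) or TAZ (aa 13-57) peptide. Eu anti-His-labelled His-TEAD (aa 217-447) saw compound for 30 min, then peptide/streptavidin-XL665 for 60 min, room temperature.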

TEAD2 YAP50-100 = TEAD2 YAP50-100 (Homo sapiens, UniProt Q15562); experiment: TEAD2-YAP HTRF (TR-FRET) protein-protein interaction assay; conditions: TEAD2, YAP peptide 50-100, HTRF; for EC50: read-out: TEAD2 YAP50-100 HTRF combined: EC50
Sequence of TEAD2 YAP50-100 (Q15562 217-447): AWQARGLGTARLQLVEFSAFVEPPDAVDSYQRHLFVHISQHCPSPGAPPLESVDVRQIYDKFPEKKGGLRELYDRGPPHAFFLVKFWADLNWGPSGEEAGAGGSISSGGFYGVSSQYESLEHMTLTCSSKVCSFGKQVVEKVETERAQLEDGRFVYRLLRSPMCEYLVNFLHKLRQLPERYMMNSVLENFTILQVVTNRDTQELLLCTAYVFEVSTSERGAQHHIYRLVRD
Outline: as §1

[2] = molecular target: TEAD2 TAZ (amino acids 13-57) (Homo sapiens, UniProt Q15562); experiment: TEAD2-TAZ HTRF (TR-FRET) protein-protein interaction assay; conditions: for TEAD2 TAZ HTRF combined: Max % Inhibition: TEAD2, TAZ peptide; for EC50: TEAD2-TAZ HTRF, TR-FRET 665 nm/615 nm, read-out: TEAD2 TAZ HTRF combined: EC50
Sequence of TEAD2 TAZ (amino acids 13-57) (Q15562 217-447): as above
Outline: as §1

[3] = molecular target: TEAD4 TAZ (amino acids 13-57) (Homo sapiens, UniProt Q15561); experiment: TEAD4-TAZ HTRF (TR-FRET) protein-protein interaction assay; conditions: for TEAD4 TAZ HTRF combined: Max % Inhibition: TEAD4, TAZ peptide; for EC50: TEAD4-TAZ HTRF, TR-FRET 665 nm/615 nm, read-out: TEAD4 TAZ HTRF combined: EC50
Sequence of TEAD4 TAZ (amino acids 13-57) (Q15561 217-434 limits assumed): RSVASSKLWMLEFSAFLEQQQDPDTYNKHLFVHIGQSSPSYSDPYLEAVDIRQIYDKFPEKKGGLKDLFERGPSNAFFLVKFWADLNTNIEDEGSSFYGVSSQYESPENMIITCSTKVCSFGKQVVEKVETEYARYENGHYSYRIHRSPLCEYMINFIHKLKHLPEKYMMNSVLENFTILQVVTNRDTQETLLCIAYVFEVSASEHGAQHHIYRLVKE
Outline: as §1

TEAD3 YAP50-100 = TEAD3 YAP50-100 (Homo sapiens, UniProt Q99594); experiment: TEAD3-YAP HTRF (TR-FRET) protein-protein interaction assay; conditions: TEAD3, YAP peptide 50-100, HTRF; for EC50: read-out: TEAD3 YAP50-100 HTRF combined: EC50
Sequence of TEAD3 YAP50-100 (Q99594 173-435 limits assumed): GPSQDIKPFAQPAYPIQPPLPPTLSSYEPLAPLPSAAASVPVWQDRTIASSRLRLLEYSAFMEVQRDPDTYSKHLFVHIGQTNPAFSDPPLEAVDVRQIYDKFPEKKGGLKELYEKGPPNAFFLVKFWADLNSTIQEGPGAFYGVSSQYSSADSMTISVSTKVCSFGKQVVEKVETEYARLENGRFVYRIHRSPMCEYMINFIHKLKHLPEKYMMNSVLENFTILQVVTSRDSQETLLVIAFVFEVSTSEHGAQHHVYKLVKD
Outline: as §1

[4] = molecular target: TEAD1 TAZ (amino acids 13-57) (Homo sapiens, UniProt P28347); experiment: TEAD1-TAZ HTRF (TR-FRET) protein-protein interaction assay; conditions: for TEAD1 TAZ HTRF combined: Max % Inhibition: TEAD1, TAZ peptide; for EC50: TEAD1-TAZ HTRF, TR-FRET 665 nm/615 nm, read-out: TEAD1 TAZ HTRF combined: EC50
Sequence of TEAD1 TAZ (amino acids 13-57) (P28347 167-426 limits assumed): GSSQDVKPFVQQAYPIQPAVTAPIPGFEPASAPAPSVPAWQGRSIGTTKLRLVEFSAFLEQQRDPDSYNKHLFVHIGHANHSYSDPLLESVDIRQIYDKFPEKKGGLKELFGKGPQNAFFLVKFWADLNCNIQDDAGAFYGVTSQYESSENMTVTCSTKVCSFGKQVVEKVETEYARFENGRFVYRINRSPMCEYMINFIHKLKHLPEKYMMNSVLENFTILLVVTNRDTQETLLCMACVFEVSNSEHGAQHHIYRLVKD
Outline: as §1

TEAD1 YAP50-100 = TEAD1 YAP50-100 (Homo sapiens, UniProt P28347); experiment: TEAD1-YAP HTRF (TR-FRET) protein-protein interaction assay; conditions: TEAD1, YAP peptide 50-100, HTRF; for EC50: read-out: TEAD1 YAP50-100 HTRF combined: EC50
Sequence of TEAD1 YAP50-100 (P28347 167-426 limits assumed): as above
Outline: as §1

TEAD4 YAP50-100 = TEAD4 YAP50-100 (Homo sapiens, UniProt Q15561); experiment: TEAD4-YAP HTRF (TR-FRET) protein-protein interaction assay; conditions: TEAD4, YAP peptide 50-100, HTRF; for EC50: read-out: TEAD4 YAP50-100 HTRF combined: EC50
Sequence of TEAD4 YAP50-100 (Q15561 217-434 limits assumed): as the sequence (Q15561 217-434 limits assumed) above
Outline: as §1

Sequence of TEAD3 TAZ (amino acids 13-57) (Q99594 173-435 limits assumed): as the sequence (Q99594 173-435 limits assumed) above

| Compound | TEAD3 TAZ HTRF combined: Max % Inhibition [1] [%] | EC50 [1] [nM] | TEAD2 YAP50-100 HTRF combined: Max % Inhibition (TEAD2 YAP50-100) [%] | EC50 (TEAD2 YAP50-100) [nM] | TEAD2 TAZ HTRF combined: Max % Inhibition [2] [%] | EC50 [2] [nM] | TEAD4 TAZ HTRF combined: Max % Inhibition [3] [%] | EC50 [3] [nM] | TEAD3 YAP50-100 HTRF combined: Max % Inhibition (TEAD3 YAP50-100) [%] | EC50 (TEAD3 YAP50-100) [nM] | TEAD1 TAZ HTRF combined: Max % Inhibition [4] [%] | EC50 [4] [nM] | TEAD1 YAP50-100 HTRF combined: Max % Inhibition (TEAD1 YAP50-100) [%] | EC50 (TEAD1 YAP50-100) [nM] | TEAD4 YAP50-100 HTRF combined: Max % Inhibition (TEAD4 YAP50-100) [%] | EC50 (TEAD4 YAP50-100) [nM] |
| --- | --- | --- | --- | --- | --- | --- | --- | --- | --- | --- | --- | --- | --- | --- | --- | --- |
| O=C(c1c(-c2ncccn2)nn2c(=O)cc(-c3ccc(C4CCCCC4)c(F)c3)[nH]c12)N1CC(CF)C1 [Compound 22, 5-(4-Cyclohexyl-3-fluorophenyl)-3-(3-(fluoromethyl)azetidine-1-carbonyl)-2-(pyrimidin-2-yl)pyrazolo[1,5-a]pyrimidin-7(4H)-one] | 57.0 | 210 | 58.0 | 20 | 57.5 | 20 | 48.0 | 60 | 60.0 | 210 | 64.0 | 110 | 69.0 | 140 | 45.5 | 70 |
| O=C(c1c(-c2cnccn2)nn2c(=O)cc(-c3ccc(C4CCCCC4)c(F)c3)[nH]c12)N1CC(CF)C1 [Compound 23, 5-(4-Cyclohexyl-3-fluorophenyl)-3-(3-(fluoromethyl)azetidine-1-carbonyl)-2-(pyrazin-2-yl)pyrazolo[1,5-a]pyrimidin-7(4H)-one] | 56.5 | 110 | 55.5 | 10 | 55.5 | 10 | 35.0 | 50 | 64.0 | 110 | 61.5 | 70 | 70.0 | 40 | 39.5 | 50 |
| O=C(c1c(-c2ncccn2)nn2c(=O)cc(-c3ccc(CC4CCCC4)cc3)[nH]c12)N1CC(CF)C1 [Compound 24, 5-(4-(Cyclopentylmethyl)phenyl)-3-(3-(fluoromethyl)azetidine-1-carbonyl)-2-(pyrimidin-2-yl) pyrazolo[1,5-a]pyrimidin-7(4H)-one] | 43.0 | 30 | 66.0 |  | 66.5 |  | 54.0 | 10 | 52.0 | 20 | 57.0 | 20 | 63.0 | 20 | 51.0 | 10 |
| O=C(c1c(-c2cnccn2)nn2c(=O)cc(-c3ccc(CC4CCCC4)cc3)[nH]c12)N1CC(CF)C1 [Compound 25, 5-(4-(Cyclopentylmethyl)phenyl)-3-(3-(fluoromethyl)azetidine-1-carbonyl)-2-(pyrazin-2-yl)pyrazolo[1,5-a]pyrimidin-7(4H)-one] | 44.0 | 40 | 63.5 | 10 | 62.0 | 10 | 47.0 | 20 | 50.0 | 40 | 52.0 | 40 | 60.0 | 30 | 45.5 | 20 |
| Cc1cnc(-c2nn3c(=O)cc(-c4ccc(C5CCCCC5)cc4)[nH]c3c2C(=O)N2CC(CF)C2)cn1 [Compound 26, 5-(4-Cyclohexylphenyl)-3-(3-(fluoromethyl)azetidine-1-carbonyl)-2-(5-methylpyrazin-2-yl) pyrazolo [1,5-a]pyrimidin-7(4H)-one] | 60.0 | 150 | 70.0 | 30 | 72.5 | 30 | 45.5 | 290 | 66.0 | 140 | 70.0 | 100 | 71.0 | 60 | 44.5 | 340 |

Second part, the compound after the results:

| TEAD3 TAZ HTRF combined: Max % Inhibition [1] [%] | EC50 [1] [nM] | TEAD2 YAP50-100 HTRF combined: Max % Inhibition (TEAD2 YAP50-100) [%] | EC50 (TEAD2 YAP50-100) [nM] | TEAD2 TAZ HTRF combined: Max % Inhibition [2] [%] | EC50 [2] [nM] | TEAD4 TAZ HTRF combined: Max % Inhibition [3] [%] | EC50 [3] [nM] | TEAD3 YAP50-100 HTRF combined: Max % Inhibition (TEAD3 YAP50-100) [%] | EC50 (TEAD3 YAP50-100) [nM] | TEAD1 TAZ HTRF combined: Max % Inhibition [4] [%] | EC50 [4] [nM] | TEAD1 YAP50-100 HTRF combined: Max % Inhibition (TEAD1 YAP50-100) [%] | EC50 (TEAD1 YAP50-100) [nM] | TEAD4 YAP50-100 HTRF combined: Max % Inhibition (TEAD4 YAP50-100) [%] | EC50 (TEAD4 YAP50-100) [nM] | Compound |
| --- | --- | --- | --- | --- | --- | --- | --- | --- | --- | --- | --- | --- | --- | --- | --- | --- |
| 64.9 | 100 | 68.6 | 10 | 67.9 | 10 | 53.1 | 30 | 74.6 | 100 | 74.5 | 50 | 75.0 | 30 | 54.1 | 30 | Cc1nccnc1-c1nn2c(=O)cc(-c3ccc(C4CCCCC4)cc3)[nH]c2c1C(=O)N1CC(CF)C1 [Compound 27, 5-(4-Cyclohexylphenyl)-3-(3-(fluoromethyl)azetidine-1-carbonyl)-2-(3-methylpyrazin-2-yl)pyrazolo[1,5-a]pyrimidin-7(4H)-one] |
| 63.0 | 100 | 59.5 | 20 | 66.5 | 10 | 41.0 | 120 | 68.0 | 100 | 74.0 | 60 | 76.0 | 40 | 43.5 | 130 | Cc1cncc(-c2nn3c(=O)cc(-c4ccc(C5CCCCC5)cc4)[nH]c3c2C(=O)N2CC(CF)C2)n1 [Compound 28, 5-(4-Cyclohexylphenyl)-3-(3-(fluoromethyl)azetidine-1-carbonyl)-2-(6-methylpyrazin-2-yl)pyrazolo[1,5-a]pyrimidin-7(4H)-one] |
| 57.5 | 170 | 70.0 | 20 | 70.0 | 20 | 50.5 | 20 | 72.5 | 180 | 71.5 | 90 | 78.0 | 60 | 54.0 | 30 | Cc1ccnc(-c2nn3c(=O)cc(-c4ccc(C5CCCCC5)cc4)[nH]c3c2C(=O)N2CC(CF)C2)c1C [Compound 29, 5-(4-Cyclohexylphenyl)-2-(3,4-dimethylpyridin-2-yl)-3-(3-(fluoromethyl)azetidine-1-carbonyl)pyrazolo[1,5-a]pyrimidin-7(4H)-one] |
| 51.5 | 80 | 61.5 | 10 | 61.5 | 10 | 31.5 | 120 | 65.0 | 90 | 64.5 | 60 | 71.0 | 70 | 45.0 | 180 | Cc1c(-c2nn3c(=O)cc(-c4ccc(C5CCCCC5)cc4)[nH]c3c2C(=O)N2CC(CF)C2)ncn1C [Compound 30, 5-(4-Cyclohexylphenyl)-2-(1,5-dimethyl-1H-imidazol-4-yl)-3-(3-(fluoromethyl)azetidine-1-carbonyl)pyrazolo[1,5-a]pyrimidin-7(4H)-one] |
